This note sets out measurements from patent US7226783B1, “Vanillin production” (David Michael & Co., Inc., priority 1997, dated 2007).

In one test the test system is Vanilla embryo culture. Nature of the test: Feeding vanilla embryo culture with vanillin precursors, HPLC analysis of metabolites. Type of test: cell-based, Vanilla planifolia. The text has this:
We derived a scheme for the vanillin biosynthetic pathway by analysis of metabolites in cultured embryos and by experiments with feeding of precursors and intermediates. This scheme is shown in FIG. 1 and the experiments are described below.
Embryo cultures of Vanilla planifolia were established as described in Example 1. The procedures used to extract phenolics from the cultured embryo cells and to analyze the extracts by high pressure liquid chromatography (HPLC) were as described generally by Havkin-Frenkel et al., Plant Cell, Tissue and Organ Culture 45: 133–136 (1996).
In the extraction procedure, 3 ml of 0.05 M sodium acetate buffer, pH 5.5, was added to about 1 gram of fresh culture. Samples were placed in boiling water for three minutes, then chilled. The cells were next homogenized in a Polytron blender for 1 minute at medium speed. A β-glucosidase solution was added to the homogenized cells to give a final concentration of 0.2%. Each sample was then incubated at 37° C. for 5 hr. Next, 17 ml of 95% ethanol was added, after which incubation at 37° C. was continued for an additional 24 hrs. The extract was then filtered and the ethanol evaporated. The filtrate was extracted twice using ethyl acetate, then extracted twice with ethyl acetate acidified to pH 3 with HCl. The extracts were combined and the ethyl acetate evaporated. The residue was dissolved in 1 ml of acidified methanol and filtered with a 0.45 μm syringe filter for HPLC analysis.
Extractions of metabolites from culture medium was similar to the cell extraction protocol. Five ml of spent medium was incubated in a β-glucosidase solution at 37° C. for 24 hrs. The medium was then extracted with ethyl acetate and the organic portions combined and evaporated, as for the cell extracts.
Metabolite levels were measured with a Hewlett Packard 1090L or a Waters HPLC with a UV detector at 280 nm. The Waters HPLC was also equipped with a diode array detector to confirm the identities of the various intermediates, and the identities of the various intermediates were further confirmed by mass spectrometry. The column was a Supelco C-18 DB column of dimensions 250 mm×4.6 mm and a particle size of 5 μm. The mobile phase contained methanol and water, each of which was acidified with 1.25% acetic acid. The flow rate was 1 ml/min, with a solvent gradient as follows: […]
Results of selected experiments in which precursors or elicitors were added to vanilla cultures are set forth below. These experiments were performed in accordance with the procedures set forth in Examples 1–4.

The test system of test [1] is alcohol dehydrogenase from Vanilla planifolia embryo culture (vanillyl alcohol dehydrogenase, VAD). Nature of the test: Substrate specificity of vanillyl alcohol dehydrogenase (VAD). Type of test: biochemical. As to conditions: for Activity with the compound as substrate, NADH: cofactor NADH; for Activity with the compound as substrate, NADPH: cofactor NADPH. Here is the method:
We have purified and characterized the activity of VAD that catalyze the reduction of vanillin to vanillyl alcohol. The enzyme was identified as an NADH or NADPH-dependent alcohol dehydrogenase. The purification protocol was as set forth below.
Crude enzyme extract: Tissue was homogenized in 0.05 M actetate-Na buffer pH 4.0 (in proportion, 1 g of the tissue and 5 ml of the buffer) in an ice bath, using Polytrone homogenizer, at 20,000 revolutions of the blade per min. The homogenate was centrifuged at 13000 g for 15 min at 4° C. and the supernatant served as the crude enzyme source.
Ammonium sulfate fractionation and molecular sieving: Crude enzyme extract (100 ml) was supplied with ammonium sulfate in an ice bath up to 60% of saturation (44.4 g of Ammonium sulphate per 100 ml). The precipitate was centrifuged and discarded. The supernatant was supplied with ammonium sulfate up to 90% of saturation (total 64.6 g per 100 ml of crude extract). The precipitate was collected (10 min centrifugation at 10,000 g), dissolved in 7 ml of extraction buffer and subjected to molecular sieving at Sephacryl S-300 High Load Column (LKB Pharmacia) 2.6×60 cm, in 0.1 M pH 4.0 acetate-Na buffer. The flow rate was adjusted to 1 ml/min and 5 ml fractions were collected. The protein elution profile was monitored at 280 nm. Five fractions (of a total of 50) containing dehydrogenase activity (130–155 ml of the column eluate) were collected.
The column was developed with 0.5 M Tris/HCL buffer pH 7.4 in 0.0–1.0 M NaCl gradient (total gradient volume—70 ml) and 2.5 ml fractions were collected. Vanillyl alcohol dehydrogenase was released from the column between 0.3–0.4 M NaCl. Fractions containing VAD activity were dialysed overnight against 0.05 M caetate-Na buffer pH 4.0 and concentrated up to 50 times using Minicon concentrating filters (Amicon). […]

Test [2] deals with V. planifolia tissue culture. Nature of the test: Bio-conversion of 3,4-dihydroxybenzaldehyde to vanillin and vanillyl alcohol in tissue culture. In kind it is cell-based, Vanilla planifolia. As to conditions: addition of 1–5 mM pro-ald. Here is the method:
The following procedure was used for the bio-conversion of 3,4-dihydroxybenzaldehyde (“proaldehyde”) to vanillin and vanillyl alcohol in V. planifolia tissue culture. The medium used for cultures was G-medium as described above. Pro-ald solutions were prepared in G-medium, to final concentrations of 0.01 to 5 mM.
Cultures used for the bio-conversion were (1) clusters, (2) embryo culture, and (3) tissue homogenates of the above cultures. Cultures were of varying ages ranging from 0 to 1 month old. The cultures were allowed to remain under normal culture conditions for 0 to 15 days. As controls, untreated cultures were extracted and analyzed as described in Example 2.
Proaldehyde at different concentrations was added to the medium, either alone or in combination with the following treatments:
Bioreactor-grown cultures were used for the bio-conversions. Different kinds of impeller designs were used to increase or decrease shear stress on the cells prior to the addition of pro-ald.

The subject of test [3] is V. planifolia embryo culture. In words: Uptake of exogenously added vanillin and transformation to vanillyl alcohol in embryo culture. In kind it is cell-based, Vanilla planifolia. The text has this: FIG. 3. Graph showing uptake of exogenously added vanillin and its transformation to vanillyl alcohol by vanillyl alcohol dehydrogenase in V. planifolia embryo culture. V(T)=vanillin in tissue; V(M)=vanillin in medium; VAL(T)=vanillyl alcohol in tissue; VAL(M)=vanillyl alcohol in medium.
Similarly, vanilla embryo culture that can be elicited by various elicitors to produce vanillin accumulates vanillyl alcohol as a final product. It is important to state at this stage that all the intermediates in the pathway are found mainly as glucosides.

As for `O=Cc1ccc(O)c(O)c1` [PRO-ALD, 3,4-dihydroxybenzaldehyde], in the test with Vanilla embryo culture (feeding experiments, Example 2), the “fate of exogenously fed compound in cultured embryos” value is “rapid methylation and conversion to vanillin or vanillyl alcohol”. In the test with Vanilla embryo culture (precursor fed at 1 mM), the “CA (p-coumaric acid) content of culture” value was determined as 285 mg/100 g dry wt, the “HBA (p-hydroxybenzyl alcohol) content of culture” value was determined as 8950 mg/100 g dry wt, the “PRO-ALD (3,4-dihydroxybenzaldehyde) content of culture” value is reported as 433 mg/100 g dry wt and the “VN (vanillin) content of culture” value is listed as 16.7 mg/100 g dry wt. Moreover, the “VN ALC (vanillyl alcohol) content of culture” value with Vanilla embryo culture (precursor fed at 1 mM) came to 286.8 mg/100 g dry wt. For the same molecule, in test [1], the “substrate preference of VAD” value was “most preferred substrates”; the “Activity with the compound as substrate, NADH” value is on record as 1.89 nmoles · gfwt^−1 · min^−1; the “Activity with the compound as substrate, NADPH” value is 2.11 nmoles · gfwt^−1 · min^−1. The “increase of production of vanillin/vanillyl alcohol” value in test [2] is listed as “several hundred fold”. Further, the “fate of compound applied to the growing medium of embryo culture” value in test [3] is recorded as “accumulation of vannilyl alcohol”.

Turning to `COc1cc(C=O)ccc1O` [Vn, vanillin], in test [1], the “substrate preference of VAD” value was “most preferred substrates”; the “Activity with the compound as substrate, NADH” value turned out to be 1.26 nmoles · gfwt^−1 · min^−1; the “Activity with the compound as substrate, NADPH” value turned out to be 0.97 nmoles · gfwt^−1 · min^−1. In test [3], the “fate of compound applied to the growing medium of embryo culture” value is “rapid uptake and reduction of the applied compound to vanillyl alcohol”.
